Measurements as given in patent publication US20240251792A1, “WEED CONTROL METHOD” (SYNGENTA CROP PROTECTION AG, priority 2021, published 2024).
Like-named read-outs stand apart in the source and are kept apart here.

Columns and labels:
Type in all cases: in vivo
weeds and/or crops = test: Post-emergence biological efficacy (Table 4); conditions: evaluated after 13 days; for pest or weed control at 1000 g/ha / pest or weed control at 250 g/ha: 312 h; for pest or weed control at 1000 g/ha / damage to plant LOLPE (100=total damage; 0=no damage) / damage to plant SOLNI (100=total damage; 0=no damage): 1000 g/ha
Procedure, shortened: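 Weeds and crops were grown 14 days in a glasshouse, then sprayed post-emergence with compound formulated in acetone/F50 and diluted in 0.2% Genapol X080 to the final dose. Damage was scored after 13 days on a 0–100 scale, where 100 is total damage.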

LOLPE = test: Pre-emergence biological efficacy (Table 3); conditions: 1000 g/ha, after 13 days
Procedure, shortened: (§1)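 Seeds were sown in standard soil in pots, kept one day in a glasshouse (24/19 °C day/night, 16 h light), then sprayed with an aqueous dilution in 0.2% Genapol X080 of a 50 g/l stock in acetone/AMA emulsifier mix. Damage was scored visually after 13 days (0 = none, 100 = total).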

SETFA = test: Pre-emergence biological efficacy (Table 3); conditions: Setaria faberi, 312 h, after 13 days, read-out: evaluation (100=total damage to plant; 0=no damage to plant)
Procedure, shortened: as §1

AMARE = test: Pre-emergence biological efficacy (Table 3); conditions: Amaranthus retroflexus, 312 h, after 13 days, read-out: evaluation (100=total damage to plant; 0=no damage to plant)
Procedure, shortened: as §1

IPOHE = test: Pre-emergence biological efficacy (Table 3); conditions: Ipomoea hederacea, 312 h, after 13 days, read-out: evaluation (100=total damage to plant; 0=no damage to plant)
Procedure, shortened: as §1

ECHCG = test: Pre-emergence biological efficacy (Table 3); conditions: Echinochloa crus-galli, 312 h, after 13 days, read-out: evaluation (100=total damage to plant; 0=no damage to plant)
Procedure, shortened: as §1

SOLNI = test: Pre-emergence biological efficacy (Table 3); conditions: 1000 g/ha, after 13 days
Procedure, shortened: as §1

AMAPA = test: Pre-emergence biological efficacy (Table 3); conditions: 312 h, after 13 days, read-out: evaluation (100=total damage to plant; 0=no damage to plant)
Procedure, shortened: as §1

ZEAMX = test: Pre-emergence biological efficacy (Table 3); conditions: 312 h, after 13 days, read-out: evaluation (100=total damage to plant; 0=no damage to plant)
Procedure, shortened: as §1

[1] = Amaranthus retroflexus, AMARE, read-out: damage to plant AMARE (100=total damage; 0=no damage)
[2] = Echinochloa crus-galli, ECHCG, read-out: damage to plant ECHCG (100=total damage; 0=no damage)
[3] = Ipomoea hederacea, IPOHE, read-out: damage to plant IPOHE (100=total damage; 0=no damage)
[4] = Setaria faberi, SETFA, read-out: damage to plant SETFA (100=total damage; 0=no damage)
[5] = AMAPA, read-out: damage to plant AMAPA (100=total damage; 0=no damage)
[6] = ZEAMX, read-out: damage to plant ZEAMX (100=total damage; 0=no damage)

| SMILES | pest or weed control at 1000 g/ha (weeds and/or crops; [1]) [%] | pest or weed control at 1000 g/ha (weeds and/or crops; [2]) [%] | pest or weed control at 1000 g/ha (weeds and/or crops; [3]) [%] | damage to plant LOLPE (100=total damage; 0=no damage) (weeds and/or crops) | pest or weed control at 1000 g/ha (weeds and/or crops; [4]) [%] | evaluation (100=total damage to plant; 0=no damage to plant) (LOLPE) | pest or weed control at 1000 g/ha (SETFA) [%] | pest or weed control at 1000 g/ha (AMARE) [%] | pest or weed control at 1000 g/ha (IPOHE) [%] | pest or weed control at 1000 g/ha (ECHCG) [%] | other results |
| --- | --- | --- | --- | --- | --- | --- | --- | --- | --- | --- | --- |
| COc1cccc(Cl)c1C(F)(F)C(=O)O [Compound 1-65, 2-(2-Chloro-6-methoxy-phenyl)-2,2-difluoro-acetic acid] | 70 | 0 | 70 | 0 | 0 | 0 | 0 | 60 | 40 | 0 | – |
| COc1c(Cl)ccc(Cl)c1C(F)(F)C(=O)O [Compound 1-326, 2-(3,6-dichloro-2-methoxy-phenyl)-2,2-difluoro-acetic acid] | 80 | 0 | 80 | 0 | 0 | 10 | 10 | 50 | 20 | 30 | – |
| O=C(O)C(F)(F)c1c(Cl)ccc2cc(Cl)cnc12 [Compound 1-418, 2-(3,7-Dichloro-8-quinolyl)-2,2-difluoro-acetic acid] | 50 | 0 | 40 | 0 | 0 | 0 | 50 | 30 | 50 | 20 | damage to plant SOLNI (100=total damage; 0=no damage) (weeds and/or crops): 90; evaluation (100=total damage to plant; 0=no damage to plant) (SOLNI): 10 |
| COc1c(C)cccc1C(F)(F)C(=O)O [Compound 1-463, 2,2-Difluoro-2-(2-methoxy-3-methyl-phenyl)acetic acid] | 80 | 10 | 70 | – | 30 | – | 0 | 50 | 50 | 0 | pest or weed control at 1000 g/ha (weeds and/or crops; [5]): 70%; pest or weed control at 1000 g/ha (weeds and/or crops; [6]): 10%; pest or weed control at 1000 g/ha (AMAPA): 60%; plant injury at 1000 g/ha (ZEAMX): 0% |
| COc1c(C(F)(F)F)cccc1C(F)(F)C(=O)O [Compound 1-464, 2,2-Difluoro-2-[2-methoxy-3-(trifluoromethyl)phenyl]acetic acid] | – | – | – | – | – | – | – | – | – | – | pest or weed control at 250 g/ha (weeds and/or crops; [5]): 80%; pest or weed control at 250 g/ha (weeds and/or crops; [6]): 10%; pest or weed control at 250 g/ha (weeds and/or crops; [1]): 80%; pest or weed control at 250 g/ha (weeds and/or crops; [2]): 70%; pest or weed control at 250 g/ha (weeds and/or crops; [3]): 60%; pest or weed control at 250 g/ha (weeds and/or crops; [4]): 70%; pest or weed control at 250 g/ha (AMAPA; 250 g/ha): 60%; pest or weed control at 250 g/ha (SETFA; 250 g/ha): 30%; pest or weed control at 250 g/ha (AMARE; 250 g/ha): 40%; pest or weed control at 250 g/ha (IPOHE; 250 g/ha): 50%; pest or weed control at 250 g/ha (ECHCG; 250 g/ha): 10%; plant injury at 250 g/ha (ZEAMX; 250 g/ha): 20% |
| O=C(O)C(F)(F)c1ccccc1OC(F)(F)F [Compound 1-465, 2,2-Difluoro-2-[2-(trifluoromethoxy)phenyl]acetic acid] | 80 | 60 | 70 | – | 30 | – | 20 | 70 | 20 | 20 | pest or weed control at 1000 g/ha (weeds and/or crops; [5]): 80%; pest or weed control at 1000 g/ha (weeds and/or crops; [6]): 20%; pest or weed control at 1000 g/ha (AMAPA): 70%; plant injury at 1000 g/ha (ZEAMX): 20% |
| COC(=O)C(F)(F)c1c(Cl)cccc1OC [Compound 2-65, Methyl 2-(2-chloro-6-methoxy-phenyl)-2,2-difluoro-acetate] | 70 | 40 | 70 | 0 | 10 | 0 | 0 | 50 | 70 | 0 | damage to plant SOLNI (100=total damage; 0=no damage) (weeds and/or crops): 30; evaluation (100=total damage to plant; 0=no damage to plant) (SOLNI): 10 |
| COC(=O)C(F)(F)c1c(Cl)ccc(Cl)c1OC [Compound 2-326, methyl 2-(3,6-dichloro-2-methoxy-phenyl)-2,2-difluoro-acetate] | 70 | 0 | 40 | 0 | 0 | 10 | 10 | 40 | 40 | 20 | – |
| COC(=O)C(F)(F)c1c(Cl)ccc2cc(Cl)cnc12 [Compound 2-418, Methyl 2-(3,7-dichloro-8-quinolyl)-2,2-difluoro-acetate] | 70 | 0 | 80 | 0 | 0 | 0 | 20 | 60 | 50 | 10 | – |
